Earlier results as cited in patent publication US12576020B2, “Increasing the stability of agents for the treatment of keratinous material” (Henkel AG & Co. KGaA, priority 2019, dated 2026).

Conditions: 25° C.

solubility in water (in words)	Compound	solubility in water
	O=S(=O)([O-])c1ccc(N=Nc2c(O)ccc3ccccc23)cc1.[Na+] [Acid Orange 7, sodium salt of 4-[(2-hydroxy-1-naphthyl)azo]benzene sulphonate]	more than 7 g/L
	O=C([O-])c1c(Cl)c(Cl)c(Cl)c(Cl)c1-c1c2c(Br)cc(=O)c(Br)c-2oc2c(Br)c(O)cc(Br)c12.O=C([O-])c1c(Cl)c(Cl)c(Cl)c(Cl)c1-c1c2c(Br)cc(=O)c(Br)c-2oc2c(Br)c(O)cc(Br)c12.[Na+].[Na+] [Acid Red 92, disodium salt of 3,4,5,6-tetrachloro-2-(1,4,5,8-tetrabromo-6-hydroxy-3-oxoxanthen-9-yl)benzoic acid]	greater than 10 g/L
	Nc1cc(S(=O)(=O)[O-])cc2cc(S(=O)(=O)[O-])c(N=Nc3ccccc3)c(O)c12.[Na+].[Na+] [Acid Red 33, disodium salt of 5-amino-4-hydroxy-3-(phenylazo)-naphthalene-2,7-disulphonate]	2500 µg/mL
highly soluble	O=C([O-])C1=NN(c2ccc(S(=O)(=O)[O-])cc2)C(=O)C1N=Nc1ccc(S(=O)(=O)[O-])cc1.[Na+].[Na+].[Na+] (stereo not shown) [Acid Yellow 23, tisodium salt of 4,5-dihydro-5-oxo-1-(4-sulfophenyl)-4-((4-sulfophenyl)azo)-1H-pyrazole-3-carboxylic acid]	
